Measurements from ChEMBL document CHEMBL5696442, “Discovery of type II inhibitors of TGFβ-activated kinase 1 (TAK1) and mitogen-activated protein kinase kinase kinase kinase 2 (MAP4K2)” (J Med Chem, 2015).
Calls of active or inactive are those of the source. The calls are words filed in the database; no cut-off is given here.

Legend:
[1] = target: Serine/threonine-protein kinase WNK1 (Homo sapiens) (UniProt Q9H4A3); test: Inhibition of Wnk1 Lys2 labeling site in human Huh-7 cell lysate at 1 uM by KiNativ Profiling analysis relative to control; format: subcellular
[2] = target: Tyrosine-protein kinase ABL1 (Homo sapiens, UniProt P00519); test: Inhibition of ABL ACT labeling site in human Huh-7 cells at 1 uM by KiNativ Profiling analysis relative to control; format: cell-based
[3] = target: Serine/threonine-protein kinase 25 (Homo sapiens) (UniProt O00506); test: Inhibition of YSK1 Lys2 labeling site in human Huh-7 cells at 1 uM by KiNativ Profiling analysis relative to control; format: cell-based
[4] = target: Dual specificity protein kinase CLK4 (Homo sapiens) (UniProt Q9HAZ1); test: Inhibition of CLK4 (unknown origin) at 10 uM by Ambit Kinomescan binding assay
[5] = target: Death-associated protein kinase 1 (Homo sapiens) (UniProt P53355); test: Inhibition of DAPK1 (unknown origin) at 10 uM by Ambit Kinomescan binding assay
[6] = target: Tyrosine-protein kinase JAK1 (Homo sapiens) (UniProt P23458); test: Inhibition of JAK1 JH2 pseudokinase domain (unknown origin) at 10 uM by Ambit Kinomescan binding assay
[7] = target: MAP kinase-activated protein kinase 5 (Homo sapiens) (UniProt Q8IW41); test: Inhibition of MAPKAPK5 (unknown origin) at 10 uM by Ambit Kinomescan binding assay
[8] = target: Serine/threonine-protein kinase PLK3 (Homo sapiens) (UniProt Q9H4B4); test: Inhibition of PLK3 (unknown origin) at 10 uM by Ambit Kinomescan binding assay
[9] = target: SRSF protein kinase 3 (Homo sapiens) (UniProt Q9UPE1); test: Inhibition of SRPK3 (unknown origin) at 10 uM by Ambit Kinomescan binding assay
[10] = target: T1, Dual specificity mitogen-activated protein kinase kinase 4 (Homo sapiens) (UniProt P45985); test: Inhibition of MAP2K4 Lys2 labeling site in human A-375 cells at 0.05 uM by KiNativ Profiling analysis relative to control; format: cell-based
T1 sequence (whole entry): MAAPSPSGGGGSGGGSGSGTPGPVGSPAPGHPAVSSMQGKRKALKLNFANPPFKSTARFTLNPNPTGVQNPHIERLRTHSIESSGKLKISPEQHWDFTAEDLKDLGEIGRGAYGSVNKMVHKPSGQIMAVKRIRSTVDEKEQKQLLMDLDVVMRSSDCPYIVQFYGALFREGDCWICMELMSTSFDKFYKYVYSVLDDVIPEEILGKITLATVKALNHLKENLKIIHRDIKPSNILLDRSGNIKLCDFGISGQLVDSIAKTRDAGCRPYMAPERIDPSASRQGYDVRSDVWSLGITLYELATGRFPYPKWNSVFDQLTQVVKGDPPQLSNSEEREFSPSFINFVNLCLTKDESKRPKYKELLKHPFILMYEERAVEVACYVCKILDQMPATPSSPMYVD

[11] = target: Tyrosine-protein kinase Fes/Fps (Homo sapiens, UniProt P07332); test: Inhibition of FES K1 labeling site in human Huh-7 cells at 10 uM by KiNativ Profiling analysis relative to control; format: cell-based
[12] = target: Serine/threonine-protein kinase Chk2 (Homo sapiens) (UniProt O96017); test: Inhibition of CHK2 K2 labeling site in human Huh-7 cells at 1 uM by KiNativ Profiling analysis relative to control; format: cell-based
[13] = target: T1, Dual specificity mitogen-activated protein kinase kinase 4 (Homo sapiens); test: Inhibition of MAP2K4 K2 labeling site harbouring DIKPSNILLDR in human Huh-7 cells at 1 uM by KiNativ Profiling analysis relative to control; format: cell-based
[14] = Inhibition of MLK1/4 K2 labeling site in human Huh-7 cells at 1 uM by KiNativ Profiling analysis relative to control; conditions: condition cancer
[15] = target: Tyrosine-protein kinase Tec (Homo sapiens) (UniProt P42680); test: Inhibition of TEC (unknown origin) at 10 uM by Ambit Kinomescan binding assay
[16] = target: T2, Receptor-interacting serine/threonine-protein kinase 4 (Homo sapiens) (UniProt P57078); test: Inhibition of ANKRD3 Lys1 labeling site in human A-375 cells at 0.5 uM by KiNativ Profiling analysis relative to control; format: cell-based
T2 sequence (whole entry): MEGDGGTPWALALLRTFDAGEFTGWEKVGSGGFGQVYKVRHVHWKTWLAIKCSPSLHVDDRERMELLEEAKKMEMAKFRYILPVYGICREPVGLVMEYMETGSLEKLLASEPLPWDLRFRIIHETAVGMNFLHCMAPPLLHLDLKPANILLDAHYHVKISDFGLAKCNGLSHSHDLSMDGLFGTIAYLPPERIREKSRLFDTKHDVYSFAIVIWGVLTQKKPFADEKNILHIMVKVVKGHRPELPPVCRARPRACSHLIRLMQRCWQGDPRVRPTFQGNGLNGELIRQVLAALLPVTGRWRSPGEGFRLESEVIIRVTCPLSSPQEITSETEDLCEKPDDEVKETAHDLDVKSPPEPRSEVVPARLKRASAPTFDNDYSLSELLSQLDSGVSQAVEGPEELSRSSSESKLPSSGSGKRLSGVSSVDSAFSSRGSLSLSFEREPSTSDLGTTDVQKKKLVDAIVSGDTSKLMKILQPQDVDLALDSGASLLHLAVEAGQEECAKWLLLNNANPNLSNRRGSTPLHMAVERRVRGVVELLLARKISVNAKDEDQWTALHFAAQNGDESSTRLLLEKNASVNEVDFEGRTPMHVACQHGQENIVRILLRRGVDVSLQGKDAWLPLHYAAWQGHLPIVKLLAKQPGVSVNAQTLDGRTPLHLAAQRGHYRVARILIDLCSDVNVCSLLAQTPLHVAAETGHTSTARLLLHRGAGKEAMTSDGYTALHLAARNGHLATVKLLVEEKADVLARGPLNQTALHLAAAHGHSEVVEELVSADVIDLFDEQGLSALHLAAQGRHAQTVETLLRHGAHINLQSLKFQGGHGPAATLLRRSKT

[17] = target: Serine/threonine-protein kinase MARK2 (Homo sapiens) (UniProt Q7KZI7); test: Inhibition of MARK2 Lys2 labeling site harbouring DLKAENLLLDADMNIK in human A-375 cells at 0.5 uM by KiNativ Profiling analysis relative to control; format: cell-based
[18] = target: Serine/threonine-protein kinase 38-like (Homo sapiens) (UniProt Q9Y2H1); test: Inhibition of NDR2 Lys2 labeling site in human A-375 cells at 0.5 uM by KiNativ Profiling analysis relative to control; format: cell-based
[19] = target: Serine/threonine-protein kinase PAK 6 (Homo sapiens) (UniProt Q9NQU5); test: Inhibition of PAK6 (unknown origin) at 1 uM by Ambit Kinomescan binding assay relative to control; values are per cent of control
[20] = target: Dual specificity tyrosine-phosphorylation-regulated kinase 1B (Homo sapiens) (UniProt Q9Y463); test: Inhibition of DYRK1B (unknown origin) at 1 uM by Ambit Kinomescan binding assay relative to control; values are per cent of control

Sequence of Death-associated protein kinase 1 (Homo sapiens) (P53355 whole entry, looked up, the tested form may be a part): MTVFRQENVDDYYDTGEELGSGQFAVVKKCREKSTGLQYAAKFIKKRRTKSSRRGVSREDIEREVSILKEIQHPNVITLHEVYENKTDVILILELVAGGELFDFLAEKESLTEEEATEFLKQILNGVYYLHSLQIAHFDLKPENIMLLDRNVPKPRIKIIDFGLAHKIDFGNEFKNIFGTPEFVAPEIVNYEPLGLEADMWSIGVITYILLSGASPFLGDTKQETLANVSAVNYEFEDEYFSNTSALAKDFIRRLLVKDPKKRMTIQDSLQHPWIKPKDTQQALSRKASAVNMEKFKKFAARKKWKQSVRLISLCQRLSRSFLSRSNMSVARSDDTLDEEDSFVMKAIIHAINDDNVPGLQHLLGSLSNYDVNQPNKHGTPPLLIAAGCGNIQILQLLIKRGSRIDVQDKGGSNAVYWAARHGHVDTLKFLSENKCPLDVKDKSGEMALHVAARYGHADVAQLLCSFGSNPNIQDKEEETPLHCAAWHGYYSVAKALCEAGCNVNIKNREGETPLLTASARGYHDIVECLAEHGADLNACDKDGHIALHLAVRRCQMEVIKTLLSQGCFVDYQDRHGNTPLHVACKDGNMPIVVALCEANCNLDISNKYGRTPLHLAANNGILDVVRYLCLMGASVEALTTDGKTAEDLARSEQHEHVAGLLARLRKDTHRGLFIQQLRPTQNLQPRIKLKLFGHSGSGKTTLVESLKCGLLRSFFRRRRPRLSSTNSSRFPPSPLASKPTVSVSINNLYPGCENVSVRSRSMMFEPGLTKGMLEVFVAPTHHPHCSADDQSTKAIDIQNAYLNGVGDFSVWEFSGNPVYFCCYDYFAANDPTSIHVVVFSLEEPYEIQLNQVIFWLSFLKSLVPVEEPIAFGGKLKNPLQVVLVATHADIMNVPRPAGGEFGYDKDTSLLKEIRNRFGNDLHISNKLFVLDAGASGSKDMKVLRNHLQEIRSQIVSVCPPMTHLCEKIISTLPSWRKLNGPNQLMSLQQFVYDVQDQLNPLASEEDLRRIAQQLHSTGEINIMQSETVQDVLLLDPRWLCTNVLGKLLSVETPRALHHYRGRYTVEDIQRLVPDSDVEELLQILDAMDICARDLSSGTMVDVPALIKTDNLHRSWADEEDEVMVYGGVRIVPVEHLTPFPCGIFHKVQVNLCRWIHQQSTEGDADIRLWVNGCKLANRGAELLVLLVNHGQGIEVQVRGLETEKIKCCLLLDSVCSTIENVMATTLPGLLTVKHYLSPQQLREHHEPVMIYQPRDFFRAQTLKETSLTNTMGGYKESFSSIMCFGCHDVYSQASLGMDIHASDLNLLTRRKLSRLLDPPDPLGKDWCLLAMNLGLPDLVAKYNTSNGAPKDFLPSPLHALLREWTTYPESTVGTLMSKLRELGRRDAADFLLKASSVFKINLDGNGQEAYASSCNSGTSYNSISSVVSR
Sequence of Serine/threonine-protein kinase 25 (Homo sapiens) (O00506 whole entry, looked up): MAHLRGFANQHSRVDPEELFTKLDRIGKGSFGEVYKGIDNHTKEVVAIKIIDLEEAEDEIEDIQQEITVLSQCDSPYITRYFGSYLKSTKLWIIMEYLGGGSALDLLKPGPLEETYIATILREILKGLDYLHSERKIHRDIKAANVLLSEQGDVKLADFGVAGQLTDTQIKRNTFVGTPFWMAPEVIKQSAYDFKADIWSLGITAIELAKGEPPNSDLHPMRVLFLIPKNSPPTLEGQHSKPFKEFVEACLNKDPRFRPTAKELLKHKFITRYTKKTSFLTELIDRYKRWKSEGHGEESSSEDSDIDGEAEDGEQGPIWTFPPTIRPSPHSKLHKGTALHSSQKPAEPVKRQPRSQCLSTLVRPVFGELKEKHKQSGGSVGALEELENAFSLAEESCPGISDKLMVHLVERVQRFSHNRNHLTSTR
Sequence of Tyrosine-protein kinase JAK1 (Homo sapiens) (P23458 whole entry, the tested form may be a part): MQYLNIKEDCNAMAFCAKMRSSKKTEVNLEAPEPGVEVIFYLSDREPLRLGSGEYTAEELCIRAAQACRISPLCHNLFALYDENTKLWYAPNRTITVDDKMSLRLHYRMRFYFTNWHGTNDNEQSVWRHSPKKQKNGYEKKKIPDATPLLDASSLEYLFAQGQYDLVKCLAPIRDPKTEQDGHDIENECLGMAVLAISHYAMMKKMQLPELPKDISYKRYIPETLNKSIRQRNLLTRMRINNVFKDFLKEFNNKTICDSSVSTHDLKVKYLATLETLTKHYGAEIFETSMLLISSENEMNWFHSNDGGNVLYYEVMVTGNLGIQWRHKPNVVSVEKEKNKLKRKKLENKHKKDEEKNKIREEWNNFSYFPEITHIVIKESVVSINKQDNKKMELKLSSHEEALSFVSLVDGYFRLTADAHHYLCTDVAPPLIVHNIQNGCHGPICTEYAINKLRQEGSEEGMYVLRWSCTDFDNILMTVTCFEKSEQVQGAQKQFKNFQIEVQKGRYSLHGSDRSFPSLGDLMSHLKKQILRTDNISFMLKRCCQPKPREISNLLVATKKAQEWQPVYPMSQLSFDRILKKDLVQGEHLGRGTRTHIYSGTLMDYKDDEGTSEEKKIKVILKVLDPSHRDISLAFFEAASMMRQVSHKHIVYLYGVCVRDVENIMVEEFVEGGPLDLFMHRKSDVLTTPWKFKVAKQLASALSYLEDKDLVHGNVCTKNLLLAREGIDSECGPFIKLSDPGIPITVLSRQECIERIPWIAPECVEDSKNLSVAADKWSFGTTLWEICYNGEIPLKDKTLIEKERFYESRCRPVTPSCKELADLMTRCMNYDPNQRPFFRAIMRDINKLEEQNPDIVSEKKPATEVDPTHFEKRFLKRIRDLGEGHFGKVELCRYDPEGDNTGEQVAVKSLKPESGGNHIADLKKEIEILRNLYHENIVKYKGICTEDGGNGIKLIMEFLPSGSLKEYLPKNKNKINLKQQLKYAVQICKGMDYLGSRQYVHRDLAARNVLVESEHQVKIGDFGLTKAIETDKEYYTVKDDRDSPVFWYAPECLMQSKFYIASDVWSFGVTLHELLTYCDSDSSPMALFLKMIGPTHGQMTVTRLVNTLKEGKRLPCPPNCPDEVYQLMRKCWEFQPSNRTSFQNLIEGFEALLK
Sequence of Tyrosine-protein kinase Fes/Fps (P07332 whole entry): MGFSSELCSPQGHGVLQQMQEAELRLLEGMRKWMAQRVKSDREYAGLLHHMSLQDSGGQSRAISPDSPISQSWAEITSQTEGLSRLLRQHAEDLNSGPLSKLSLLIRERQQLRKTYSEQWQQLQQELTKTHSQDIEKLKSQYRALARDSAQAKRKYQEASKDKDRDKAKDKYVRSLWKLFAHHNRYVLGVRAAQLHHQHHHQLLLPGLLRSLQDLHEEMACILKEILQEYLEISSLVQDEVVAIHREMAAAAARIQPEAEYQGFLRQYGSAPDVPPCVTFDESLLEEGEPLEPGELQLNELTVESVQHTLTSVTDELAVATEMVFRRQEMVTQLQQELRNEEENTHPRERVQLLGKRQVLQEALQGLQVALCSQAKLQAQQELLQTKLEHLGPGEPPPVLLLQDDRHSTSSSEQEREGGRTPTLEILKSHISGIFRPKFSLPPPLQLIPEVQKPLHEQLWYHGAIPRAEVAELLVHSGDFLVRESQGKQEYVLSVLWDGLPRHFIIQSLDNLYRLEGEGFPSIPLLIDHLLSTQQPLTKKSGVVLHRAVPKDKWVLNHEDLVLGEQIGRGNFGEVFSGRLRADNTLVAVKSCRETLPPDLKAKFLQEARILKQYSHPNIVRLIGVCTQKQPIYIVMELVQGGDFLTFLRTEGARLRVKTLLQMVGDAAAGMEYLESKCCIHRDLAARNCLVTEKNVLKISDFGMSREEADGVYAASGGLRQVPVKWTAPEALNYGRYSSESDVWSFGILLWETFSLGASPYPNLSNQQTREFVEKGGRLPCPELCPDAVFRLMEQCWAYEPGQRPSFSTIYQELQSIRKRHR
Sequence of Serine/threonine-protein kinase 38-like (Homo sapiens) (Q9Y2H1 2-464 limits assumed): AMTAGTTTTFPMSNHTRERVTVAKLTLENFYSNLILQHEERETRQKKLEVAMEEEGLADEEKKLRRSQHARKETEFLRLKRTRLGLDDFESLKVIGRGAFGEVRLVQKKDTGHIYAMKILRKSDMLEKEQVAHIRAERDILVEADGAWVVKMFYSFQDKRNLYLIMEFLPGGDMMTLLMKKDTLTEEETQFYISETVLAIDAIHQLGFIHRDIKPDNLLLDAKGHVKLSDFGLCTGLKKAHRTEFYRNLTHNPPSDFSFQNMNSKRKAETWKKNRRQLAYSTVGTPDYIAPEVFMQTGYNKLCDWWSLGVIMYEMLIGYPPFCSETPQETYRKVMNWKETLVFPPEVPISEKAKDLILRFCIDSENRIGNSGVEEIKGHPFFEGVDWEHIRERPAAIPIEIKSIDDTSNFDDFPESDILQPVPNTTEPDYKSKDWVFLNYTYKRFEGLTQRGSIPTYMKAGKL
Sequence of SRSF protein kinase 3 (Homo sapiens) (Q9UPE1 whole entry): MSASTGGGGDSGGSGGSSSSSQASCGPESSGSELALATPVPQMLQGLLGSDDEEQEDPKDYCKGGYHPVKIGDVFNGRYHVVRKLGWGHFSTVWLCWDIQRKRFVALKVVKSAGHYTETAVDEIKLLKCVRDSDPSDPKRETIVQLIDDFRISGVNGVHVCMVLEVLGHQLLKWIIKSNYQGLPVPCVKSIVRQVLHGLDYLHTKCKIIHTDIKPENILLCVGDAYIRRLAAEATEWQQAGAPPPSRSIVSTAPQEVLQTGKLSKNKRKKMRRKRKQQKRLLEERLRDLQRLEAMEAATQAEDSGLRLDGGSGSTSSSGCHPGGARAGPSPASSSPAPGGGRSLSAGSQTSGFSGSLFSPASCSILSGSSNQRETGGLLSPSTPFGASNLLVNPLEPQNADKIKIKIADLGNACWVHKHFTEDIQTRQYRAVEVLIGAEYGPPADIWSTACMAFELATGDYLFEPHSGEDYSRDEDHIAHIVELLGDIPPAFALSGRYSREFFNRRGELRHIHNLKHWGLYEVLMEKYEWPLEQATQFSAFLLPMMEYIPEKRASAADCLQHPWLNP

CNc1cc(Oc2cc(C(=O)Nc3cc(N4CCN(C)CC4)cc(C(F)(F)F)c3)ccc2C)ncn1
inhibition [1]: 2.7%
inhibition [2]: 31.6%
inhibition [3]: 25.2%

CCN1CCN(Cc2ccc(NC(=O)c3ccc(C)c(Oc4ccnc5[nH]ccc45)c3)cc2C(F)(F)F)CC1
inhibition [4]: inactive
inhibition [5]: inactive
inhibition [6]: inactive
inhibition [7]: inactive
inhibition [8]: inactive
inhibition [9]: inactive
inhibition [10]: -3.4%
inhibition [11]: 72.6%
inhibition [12]: 17.5%
inhibition [13]: -9.3%
inhibition at 1 µM [14]: 1.5%
inhibition [15]: inactive

CCN1CCN(Cc2ccc(NC(=O)c3ccc(C)c(/C=C/c4cnc5[nH]ccc5c4OC)c3)cc2C(F)(F)F)CC1
inhibition [16]: 23.7%
inhibition [17]: 9.1%
inhibition [18]: 13.4%
residual activity [19]: 100%
residual activity [20]: 73%
